Assay [1] can be described thus: Inhibitory concentration against Hepatitis B virus reverse transcriptase (HBV-RT).
Assay [2] in a line: Inhibitory activity against Hepatitis B virus reverse transcriptase (HBV-RT) at 1 ug/mL.
Assay [3] in a line: Inhibitory activity against Hepatitis B virus reverse transcriptase (HBV-RT) at 0.1 ug/mL.
Assay [4] can be described thus: Inhibitory activity against Hepatitis B virus reverse transcriptase (HBV-RT) at 0.01 ug/mL.
Assay [5] in a line: Inhibitory concentration against Hepatitis B virus-Reverse-transcriptase (HBV-RT).

From ChEMBL document CHEMBL1135346, “2,5-Pyridinedicarboxylic acid derivatives as non-nucleosidic reverse transcriptase inhibitors of hepatitis B virus” (Bioorg Med Chem Lett, 2002) come the findings set out here.

In brackets after ≈: the same amount, converted by molar mass.

The IC50 is the concentration needed to halve the response being measured. Read a high IC50 as a need for much substance. A word on the inhibition: it is the relative decrease from the control value, in per cent. In assay [1], `CC(C)Nc1cccnc1N1CCN(C(=O)c2ccc(C(=O)NC(C)(C)C)cn2)CC1` displayed an IC50 of 0.002 mg/L (≈ 0.00471 µM). Moreover, the inhibition in assay [2] came to 88%; in assay [3] it was 72%; in assay [4] it was 61%.

Consider `CCNc1cccnc1N1CCN(C(=O)c2ccc(C(=O)NCCOC)cn2)CC1`, for which, in assay [1], the IC50 was found to be 0.049 mg/L (≈ 0.119 µM). Besides, the inhibition in assay [2] worked out at 75%; in assay [3], 57%; in assay [4] it was 36%.

Turning to `CC(C)CNc1cccnc1N1CCN(C(=O)c2ccc(C(=O)Nc3ncccc3O)cn2)CC1`, in assay [1], the IC50 was 0.17 mg/L (≈ 0.357 µM). Moreover, the inhibition amounted to 71% in assay [2], 46% in assay [3] and 13% in assay [4].

In assay [1], `CC(C)Nc1cccnc1N1CCN(C(=O)c2ccc(C(=O)NCCCn3ccnc3)cn2)CC1` showed a half-maximal inhibitory concentration (IC50) of 0.001 mg/L (≈ 0.0021 µM). Moreover, the inhibition in assay [2] came out at 89%; in assay [3] it was 72%; in assay [4], 65%.

In the case of `CC(C)CNc1cccnc1N1CCN(C(=O)c2ccc(C(=O)NCCCn3ccnc3)cn2)CC1`, the half-maximal inhibitory concentration (IC50) in assay [1] was 0.002 mg/L (≈ 0.00408 µM). Moreover, the inhibition in assay [2] was determined as 88%; in assay [3] it was 72%; in assay [4], 60%.

Consider `Nc1cccnc1N1CCN(C(=O)c2ccc(C(=O)NCCO)cn2)CC1`, for which the IC50 in assay [1] is 0.003 mg/L (≈ 0.0081 µM). Besides, the inhibition was found to be 74% in assay [2], 67% in assay [3] and 54% in assay [4].

In turn, `CCNc1cccnc1N1CCN(C(=O)c2ccc(C(=O)NC(C)(C)CO)cn2)CC1` gave an IC50 in assay [1] of 0.068 mg/L (≈ 0.159 µM). In addition, the figures for the inhibition in assay [2], in assay [3] and in assay [4] were 72%, 56% and 32%, respectively.

Turning to `CC(C)Nc1cccnc1N1CCN(C(=O)c2ccc(C(=O)NC3CC3)cn2)CC1`, the IC50 in assay [1] came to 0.237 mg/L (≈ 0.58 µM). For the same compound, the inhibition in assay [2] was 62%; in assay [3] it was 51%; in assay [4], 5%.

`CC(C)CNC(=O)c1ccc(C(=O)N2CCN(c3ncccc3NC(C)C)CC2)nc1` came in with a half-inhibitory concentration (IC50) in assay [1] of 0.002 mg/L (≈ 0.00471 µM). Further, the results for the inhibition in assay [2], in assay [3] and in assay [4] were 83%, 65% and 61%, respectively.

`CCNc1cccnc1N1CCN(C(=O)c2ccc(C(=O)NCc3ccccn3)cn2)CC1`: the IC50 in assay [1] was determined as 0.116 mg/L (≈ 0.26 µM). Besides, the inhibition came to 70% in assay [2], 56% in assay [3] and 19% in assay [4].

For `CC(C)Nc1cccnc1N1CCN(C(=O)c2ccc(C(=O)NC(C)(C)CO)cn2)CC1`, the inhibition in assay [2] worked out at 80%; in assay [3] it was 65%; in assay [4], 62%. The compound also showed a 50% inhibitory concentration (IC50) in assay [5] of 0.001 mg/L (≈ 0.00227 µM).

As to `COCCCNC(=O)c1ccc(C(=O)N2CCN(c3ncccc3NCC(C)C)CC2)nc1`, the half-inhibitory concentration (IC50) in assay [1] is 0.123 mg/L (≈ 0.271 µM). The inhibition was 72% in assay [2], 51% in assay [3] and 20% in assay [4].

The compound `COCCCNC(=O)c1ccc(C(=O)N2CCN(c3ncccc3NC(C)C)CC2)nc1` gave an IC50 in assay [1] of 0.13 mg/L (≈ 0.295 µM). For the same compound, the inhibition in assay [2] amounted to 63%; in assay [3], 53%; in assay [4], 28%.

Compound `CCNc1cccnc1N1CCN(C(=O)c2ccc(C(=O)NC(C)C)cn2)CC1` registered an IC50 in assay [1] of 0.006 mg/L (≈ 0.0151 µM). Also, the inhibition came to 85% in assay [2], 67% in assay [3] and 54% in assay [4].

With `CC(C)(CO)NC(=O)c1ccc(C(=O)N2CCN(c3ncccc3N)CC2)nc1`, the IC50 in assay [1] came to 0.038 mg/L (≈ 0.0954 µM). Further, the inhibition in assay [2] was found to be 70%; in assay [3] it was 62%; in assay [4] it was 38%.

On to `COCCNC(=O)c1ccc(C(=O)N2CCN(c3ncccc3NCC(C)C)CC2)nc1`, for which the IC50 in assay [1] came to 0.007 mg/L (≈ 0.0159 µM). Besides, the values for the inhibition in assay [2], in assay [3] and in assay [4] were 85%, 70% and 52%, respectively.

Consider `COC(CNC(=O)c1ccc(C(=O)N2CCN(c3ncccc3NC(C)C)CC2)nc1)OC`, for which the concentration for half-maximal inhibition (IC50) in assay [1] stood at 0.005 mg/L (≈ 0.011 µM). Also, the inhibition in assay [2] came to 87%; in assay [3], 65%; in assay [4], 57%.

`CC(C)CNc1cccnc1N1CCN(C(=O)c2ccc(C(=O)NC3CC3)cn2)CC1` displayed a concentration for half-maximal inhibition (IC50) in assay [1] of 0.002 mg/L (≈ 0.00473 µM). The inhibition in assay [2] turned out to be 87%; in assay [3], 71%; in assay [4] it was 60%.

For the compound `CC(C)CNc1cccnc1N1CCN(C(=O)c2ccc(C(=O)NC(C)(C)CO)cn2)CC1`, the 50% inhibitory concentration (IC50) in assay [1] worked out at 0.001 mg/L (≈ 0.0022 µM). For the same compound, the values for the inhibition in assay [2], in assay [3] and in assay [4] were 90%, 71% and 63%, respectively.

With `CC(C)Nc1cccnc1N1CCN(C(=O)c2ccc(C(=O)NCCCO)cn2)CC1`, the concentration for half-maximal inhibition (IC50) in assay [1] came out at 0.012 mg/L (≈ 0.0281 µM). Also, the inhibition in assay [2] turned out to be 71%; in assay [3] it was 60%; in assay [4], 49%.

`CC(C)Nc1cccnc1N1CCN(C(=O)c2ccc(C(=O)Nc3ccccn3)cn2)CC1`: the IC50 in assay [1] was determined as 0.085 mg/L (≈ 0.191 µM). In addition, the inhibition in assay [2] was determined as 74%; in assay [3], 55%; in assay [4] it was 26%.

Regarding `Cc1ccn(NC(=O)c2ccc(C(=O)N3CCN(c4ncccc4NC(C)C)CC3)nc2)n1`, the IC50 in assay [1] was 0.124 mg/L (≈ 0.276 µM). Moreover, the inhibition in assay [2] came to 70%; in assay [3] it was 53%; in assay [4], 20%.

Consider `CCNc1cccnc1N1CCN(C(=O)c2ccc(C(=O)NCCN3CCOCC3)cn2)CC1`, for which, in assay [1], the IC50 came to 0.109 mg/L (≈ 0.233 µM). Moreover, the inhibition was found to be 66% in assay [2], 52% in assay [3] and 30% in assay [4].

In turn, `COCCNC(=O)c1ccc(C(=O)N2CCN(c3ncccc3NC(C)C)CC2)nc1` registered an IC50 in assay [1] of 0.001 mg/L (≈ 0.00234 µM). In addition, the figures for the inhibition in assay [2], in assay [3] and in assay [4] were 80%, 68% and 60%, respectively.

Take `Nc1cccnc1N1CCN(C(=O)c2ccc(C(=O)NCc3ccccn3)cn2)CC1`: the IC50 in assay [1] turned out to be 0.106 mg/L (≈ 0.254 µM). Moreover, the inhibition in assay [2] stood at 72%; in assay [3], 54%; in assay [4], 22%.

In turn, `CC(C)CNc1cccnc1N1CCN(C(=O)c2ccc(C(=O)NCCO)cn2)CC1` registered a half-inhibitory concentration (IC50) in assay [1] of 0.009 mg/L (≈ 0.0211 µM). The inhibition in assay [2] is 86%; in assay [3], 60%; in assay [4], 54%.

On to `CC(C)Nc1cccnc1N1CCN(C(=O)c2ccc(C(=O)NCCO)cn2)CC1`, for which, in assay [1], the 50% inhibitory concentration (IC50) came out at 0.261 mg/L (≈ 0.633 µM). Besides, the inhibition in assay [2] amounted to 54%; in assay [3], 51%; in assay [4] it was 30%.

For `CC(C)Nc1cccnc1N1CCN(C(=O)c2ccc(C(=O)NCc3ccccn3)cn2)CC1`, the IC50 in assay [1] was 0.007 mg/L (≈ 0.0152 µM). Also, the results for the inhibition in assay [2], in assay [3] and in assay [4] were 77%, 62% and 53%, respectively.

For the compound `CC(C)CNc1cccnc1N1CCN(C(=O)c2ccc(C(=O)NC(C)C)cn2)CC1`, in assay [1], the concentration for half-maximal inhibition (IC50) came to 0.005 mg/L (≈ 0.0118 µM). In addition, the values for the inhibition in assay [2], in assay [3] and in assay [4] were 90%, 66% and 58%, respectively.

`CCNc1cccnc1N1CCN(C(=O)c2ccc(C(=O)NCCO)cn2)CC1`: the IC50 in assay [1] was determined as 0.007 mg/L (≈ 0.0176 µM). Also, the inhibition in assay [2] turned out to be 84%; in assay [3], 69%; in assay [4] it was 52%.

Take `CC(C)Nc1cccnc1N1CCN(C(=O)c2ccc(C(=O)NC3CCCC3)cn2)CC1`: in assay [1], the 50% inhibitory concentration (IC50) was 0.029 mg/L (≈ 0.0664 µM). Moreover, the inhibition in assay [2] was found to be 75%; in assay [3], 65%; in assay [4], 39%.

In turn, `Cc1cc(NC(=O)c2ccc(C(=O)N3CCN(c4ncccc4NC(C)C)CC3)nc2)no1` returned an IC50 in assay [1] of 0.11 mg/L (≈ 0.245 µM). The values for the inhibition in assay [2], in assay [3] and in assay [4] were 72%, 50% and 25%, respectively.

Turning to `CC(C)Nc1cccnc1N1CCN(C(=O)c2ccc(C(=O)NCCN3CCOCC3)cn2)CC1`, in assay [1], the 50% inhibitory concentration (IC50) was determined as 0.012 mg/L (≈ 0.0249 µM). The inhibition in assay [2] came out at 70%; in assay [3], 60%; in assay [4], 49%.

`CC(C)NC(=O)c1ccc(C(=O)N2CCN(c3ncccc3NC(C)C)CC2)nc1`: the IC50 in assay [1] turned out to be 0.149 mg/L (≈ 0.363 µM). For the same compound, the inhibition in assay [2] is 65%; in assay [3] it was 51%; in assay [4] it was 23%.

In assay [1], `CC(C)NC(=O)c1ccc(C(=O)N2CCN(c3ncccc3N)CC2)nc1` gave a 50% inhibitory concentration (IC50) of 0.023 mg/L (≈ 0.0624 µM). Besides, the values for the inhibition in assay [2], in assay [3] and in assay [4] were 79%, 62% and 43%, respectively.
